# According to article PMC9914633 (International Journal of Environmental Research and Public …, 2023):
# Molecular target: T1, xoSNAT1 (Xanthomonas oryzae, UniProt A0ACG7R854)
# T1 construct: gene DZA53_20490
# Conditions: serotonin 0.5 mM; acetyl-CoA 0.5 mM; 100 mM potassium phosphate pH 8.8; 35 °C
structure (smiles),measurement,value
NCCc1c[nH]c2ccc(O)cc12 [serotonin],LC-MS/MS of serotonin and product,"GST and xoSNAT2 have no SNAT activity, while xoSNAT1 showed only low activity"
